Measured values: patent US20180265487A1, “SWEET TASTE MODULATORS” (Altria Client Services LLC, priority 2017, published 2018)

Tested on: sweet taste perception
Assay: time-intensity test of sweet taste (12 panelists, sample vs reference solution of 2 vol % sucrose, 1 vol % ethanol)
Type: in vivo, human
Settings: for concentration at which perceived intensity and duration of sweet taste perception are increased: in 2 vol % sucrose
Source text: The influence of the sweet taste modulators on the temporal perception of sweetness can be shown by means of time-intensity tests. For time-intensity tests, a reference solution containing 2 vol % sucrose and 1 vol % ethanol in water and sample solutions (i.e., concentration of stock aqueous solutions listed in Table 1 below) containing 2 vol % sucrose and 1 vol % ethanol and the test compound in different concentrations in water were rated on a horizontal, non-structured line scale from 0 (not detectable) to 10 (very strongly detectable). The reference solution served as a baseline for the time-intensity tests upon which the sample solutions were compared for the temporal perception of sweetness. Twelve panelists were asked to rinse their mouths with an aliquot (10 mL) of a solution and immediately start rating solution's sweet taste intensity for a period of 5 seconds. […] The rating results were the averages from the twelve panelists.
FIGS. 7A and 7B illustrate empirical (FIG. 7A) and predictive (FIG. 7B) model time-intensity experiments using the reference solution containing 2 vol % sucrose and 1 vol % ethanol in water and a sample solution containing 50 μM EMF, 2 vol % sucrose and 1 vol % ethanol in water. Time intensity tests enable continuous measurement of the intensity of taste impressions.
After calculating average time intensity (TI) curves using FIZZ biosystems calculations software and determining the TI curves integrated value (i.e., area under the curve), duration, and duration of the increasing and decreasing phase from individual TI curves, the trapezoidal method was applied after extraction of data points at 5% and 95% of the respective maximum intensity on the increasing and decreasing sections of the individual TI curves. The following parameters were extracted for further data analysis: maximum intensity (Imax) of taste perception experienced, total area under the curve (Atotal) 1 (i.e., total amount) of taste perception experienced and total duration (Dtotal) of taste perception experienced. Extracted parameters of sample solutions were normalized on the reference solution from the same evaluation session and a two-way analysis of variance (ANOVA) was conducted.
Table 2 below illustrates an overview of all p-values generated by two-way ANOVA of maximum intensity (Imax), total area under the curve (Atotal) land total duration (Dtotal) for sample solutions containing 5-ethyoxymethylfurfural (EMF), as well as ester of 5-hydroxymethylfurfural and vanillic acid (VanMF), 4-hydrozybenzaldehyde (pHBA), syringic aldehyde (SyA), and sinapic aldehyde (SinA), respectively. P-values (i.e., calculated probabilities) are statistical measures ranging from 0 to 1 which quantify the statistical significance of a data set. In other words, the p-value is a function of the observed sample results (a test statistic) relative to a statistical model, which measures how extreme the observation is. Smaller p-values are indicative of scaling significance. For example, p <0.05 are “significant” (*) (i.e., less than 1 in 20 chance, or 5%, of the data set being erroneous or inaccurate); p <0.01 are “highly significant” (**) (i.e., less than 1 in 100 chance, or 1%, of the data set being erroneous or inaccurate); and, p <0.001 are “very highly significant” (***) (less than 1 in 1000 chance, or 0.1%, of the data set being erroneous or inaccurate). Measured concentrations of EMF, VanMF, pHBA, SyA, and SinA in the sample solutions used in the statistical analysis are 10 μmol/L, 25 μmol/L, and 50 μmol/L, respectively. The p-values in Table 2 below relate to the statistical significance of the Imax, Atotal, and Dtotal values of sample solutions containing EMF, VanMF, pHBA, SyA, and SinA, respectively, in FIGS. 8-12.

`COc1cc(C=O)cc(OC)c1O` [SyA, syringic aldehyde] was tested, and the “increase of Atotal vs reference solution (significance)” value (shortened to “increase of Atotal … (significance)”) (10 μM) was “do not have a significant influence”, the “increase of Dtotal vs reference solution (significance)” value (“increase of Dtotal … (significance)” for short) (10 μM) was “do not have a significant influence” and the “increase of Imax vs reference solution (significance)” value (from here on “increase of Imax … (significance)”) (10 μM) was “do not have a significant influence”. The “increase of Atotal … (significance)” value (25 μM) was “*** (p <0.001 are “very highly significant” (***))”, the “increase of Dtotal … (significance)” value (25 μM) was “* (p <0.05 are “significant” (*))” and the “increase of Imax … (significance)” value (25 μM) was “** (p <0.01 are “highly significant” (**))”. For the same compound, the “increase of Atotal … (significance)” value (50 μM) was “** (p <0.01 are “highly significant” (**))” and the “increase of Imax … (significance)” value (50 μM) was “** (p <0.01 are “highly significant” (**))”.

For `COc1cc(/C=C/C=O)cc(OC)c1O` [SinA, sinapic aldehyde], the “increase of Atotal … (significance)” value (10 μM) was “significant increases”, the “increase of Dtotal … (significance)” value (10 μM) was “no significant increase” and the “increase of Imax … (significance)” value (10 μM) was “significant increases”. For the same compound, the “increase of Atotal … (significance)” value (25 μM) was “significant increases”, the “increase of Dtotal … (significance)” value (25 μM) was “significant increases” and the “increase of Imax … (significance)” value (25 μM) was “significant increases”. For the same compound, the “increase of Atotal … (significance)” value (50 μM) was “significant increases”, the “increase of Dtotal … (significance)” value (50 μM) was “significant increases” and the “increase of Imax … (significance)” value (50 μM) was “significant increases”.

`CCOCc1ccc(C=O)o1` [EMF, 5-ethoxymethyl-2-furaldehyde] was tested, and the “increase of Atotal … (significance)” value (10 μM) was “no significant increases”, the “increase of Dtotal … (significance)” value (10 μM) was “no significant increases” and the “increase of Imax … (significance)” value (10 μM) was “no significant increases”. For the same compound, the “increase of Atotal … (significance)” value (25 μM) was “no significant increases”, the “increase of Dtotal … (significance)” value (25 μM) was “no significant increases” and the “increase of Imax … (significance)” value (25 μM) was “very highly significant increase”. For the same compound, the “increase of Atotal … (significance)” value (50 μM) was “*** (p <0.001 are “very highly significant” (***))”, the “increase of Dtotal … (significance)” value (50 μM) was “*** (p <0.001 are “very highly significant” (***))” and the “increase of Imax … (significance)” value (50 μM) was “*** (p <0.001 are “very highly significant” (***))”. For the same compound, the “total area under the curve (Atotal) compared with reference solution” value (50 μM in 2 vol % sucrose, 1 vol % ethanol) was “greater than Atotal for the reference solution”, the “maximum intensity (Imax) of sweet taste perception on the intensity scale” value (50 μM in 2 vol % sucrose, 1 vol % ethanol, scale 0 to 10, reference solution about 3.5) was about 5 and the “concentration at which perceived intensity and duration of sweet taste perception are increased” value (1 vol % ethanol) was “at least 50 μM”.

With `COc1cc(C(=O)OCc2ccc(C=O)o2)ccc1O` [VanMF, ester of 5-hydroxymethylfurfural and vanillic acid] the “increase of Atotal … (significance)” value (10 μM) was “** (p <0.01 are “highly significant” (**))”, the “increase of Dtotal … (significance)” value (10 μM) was “** (p <0.01 are “highly significant” (**))” and the “increase of Imax … (significance)” value (10 μM) was “** (p <0.01 are “highly significant” (**))”. For the same compound, the “increase of Atotal … (significance)” value (25 μM) was “* (p <0.05 are “significant” (*))”, the “increase of Dtotal … (significance)” value (25 μM) was “* (p <0.05 are “significant” (*))” and the “increase of Imax … (significance)” value (25 μM) was “** (p <0.01 are “highly significant” (**))”. For the same compound, the “increase of Atotal … (significance)” value (50 μM) was “no significant increases”, the “increase of Dtotal … (significance)” value (50 μM) was “* (p <0.05 are “significant” (*))” and the “increase of Imax … (significance)” value (50 μM) was “no significant increases”.

For `O=Cc1ccc(O)cc1` [pHBA, 4-hydrozybenzaldehyde], the “increase of Atotal … (significance)” value (10 μM) was “No significant increases”, the “increase of Dtotal … (significance)” value (10 μM) was “No significant increases” and the “increase of Imax … (significance)” value (10 μM) was “No significant increases”. For the same compound, the “increase of Atotal … (significance)” value (25 μM) was “** (p <0.01 are “highly significant” (**))”, the “increase of Imax … (significance)” value (25 μM) was “*** (p <0.001 are “very highly significant” (***))” and the “increase of Atotal … (significance)” value (50 μM) was “** (p <0.01 are “highly significant” (**))”. For the same compound, the “increase of Dtotal … (significance)” value (50 μM) was “** (p <0.01 are “highly significant” (**))”, the “increase of Imax … (significance)” value (50 μM) was “** (p <0.01 are “highly significant” (**))” and the “concentration at which perceived intensity and duration of sweet taste perception are increased” value (1 vol % ethanol) was 50 µM.
